Counter-ions that a name gives are not always drawn. Like-named read-outs stand apart in the source and are kept apart here.

For series [1], the target named is T1, BCL-XL (Homo sapiens, UniProt Q07817).
T1 construct: BCL-XL (amino acids 1-212, C-terminal fused to a hexahistidine (6×His) tag); purchased BPS Bioscience (San Diego, Calif., USA); host or cells: E. coli
Put plainly: Protein-protein interaction assay BCL-XL/Bad BH3 peptide (BCL-XL assay), TR-FRET. As to conditions: His-BCL-XL / Bad BH3-derived peptide. In kind it is binding. As for the experimental part: Protein-Protein Interaction Assay: BCL-XL/Bad BH3 Peptide (BCL-XL Assay)
The dose-dependent inhibition by the compounds described in this invention of the interaction between […] and the BH3 domain of Bad (both human) was determined using a steady state binding competition assay with time-resolved fluorescence energy transfer (TR-FRET) readout. For that purpose BCL-2 (amino acids 1-211, C-terminal fused to a hexahistidine (6×His) tag (SEQ ID NO: 3) and a synthetic Bad BH3-derived peptide of sequence Biotin-PEG2-PEG2-NLWAAQRYGRELRR-NIe-SDEFVDSFKK-amide (SEQ ID NO: 2) served as protein receptor and tracer ligand respectively. The recombinant BCL-2 protein (expressed in E. coli) was purchased from BPS Bioscience (San Diego, Calif., USA). The Bad BH3-derived peptide can be obtained from e.g. Biosyntan (Berlin, Germany).
In the assay 11 different concentrations of each compound (0.1 nM, 0.33 nM, 1.1 nM, 3.8 nM, 13 nM, 44 nM, 0.15 μM, 0.51 μM, 1.7 μM, 5.9 μM and 20 μM) were typically measured as duplicates in the same microtiter plate. For that, 100-fold concentrated DMSO solutions were prepared by serial dilutions (1:3.4) of a 2 mM stock solution in a clear, 384-well microtiter plate (Greiner Bio-One, Frickenhausen, Germany). From there, 50 nl were transferred in a dark test plate (Greiner Bio-One. Frickenhausen, Germany). The assay was initiated by addition of 2 μl of a 2,5-fold concentrated Hs-BCL-XL solution (usually for a 1 nM end concentration in 5 μl reaction volume) in aqueous assay buffer [50 mM Tris/HCl pH 7, 100 mM sodium chloride (NaCl), 50 mM potassium fluoride (KF), 0.005% Tween-20, 2 mM DTT, 0.1% bovine gamma globulin (BGG)] to the compounds in the assay plate. This was followed by a 10-minute incubation step at 22° C. for pre-equilibration of the putative complex between His-BCL-XL and the compounds.
The mixture was incubated in the dark for one hour at 22° C. and then overnight at 4° C. The formation of BCL-XL/Bad complexes was determined by measuring the resonance energy transfer of the anti-His- Eu-cryptate antibody to the streptavidin-XL665 present in the reaction. For that purpose, the fluorescence emission at 620 nm and 665 nm after excitation at 330-350 nm was measured in a TR-FRET measuring instrument, for instance a Rubystar or a Pherastar (both from BMG Lab Technologies, Offenburg, Germany) or a Viewlux (Perkin-Elmer). The ratio of the emission at 665 nm and at 622 nm was used as indicator of the amount of BCL-XL/Bad complexes present.
The resulting data (ratio) were normalized, taking 0% inhibition as the mean value of control measurements (usually 32 data points) where all reagents were included. In this case 50 nl DMSO were used instead of compounds. A 100% inhibition corresponded to the mean value of control measurements (usually 32 data points) where all reagents except BCL-XL were included. IC50 values were determined by regression analysis based on a 4 parameter equation (minimum, maximum, IC50, Hill; Y=Max+(Min−Max)/(1+(X/IC50)^Hill) using the Screener Software (Genedata).

Series [2] has as its system SUDHL5. Nature of the series: Induction of caspase-3/7 activity (Caspase-Glo 3/7), SUDHL5. Type of series: cell-based. As to conditions: caspase-3/7 induction, SUDHL5 cells, 3 h treatment, median. Summed up: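 Apoptosis induction measured as caspase-3/7 activity (Caspase-Glo 3/7) in DLBCL lines after 3 h treatment at 37 °C; EC50 derived relative to the reference compound's maximal induction, with C0 fixed at 1.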

The subject of series [3] is SUDHL5. Nature of the series: Anti-proliferative effect (CellTiter-Glo, 72 h), SUDHL5. In kind it is cell-based. As to conditions: SUDHL5 cells, antiproliferation, 72 h incubation, median, read-out: Antiproli SUDHL5 [M] (median). In short, it runs like this: (§1)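 After seeding, one plate is read right away by CellTiter-Glo luminescence to fix time zero. The treated plates stay at 37 °C in humidified air for 72 h and are then measured with the same reagent and 10 min incubation.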

In series [4] the test system is SUDHL10. Nature of the series: Anti-proliferative effect (CellTiter-Glo, 72 h), SUDHL10. Type of series: cell-based. As to conditions: SUDHL10 cells, antiproliferation, 72 h incubation, median, read-out: Antiproli SUDHL10 [M] (median). Summed up: as §1
Series [5] deals with A2780. Put plainly: Anti-proliferative effect (CellTiter-Glo, 72 h), A2780. Type of series: cell-based. As to conditions: A2780 cells, median, read-out: IC50 antiproliferation assay A2780 [M] (median). In short, it runs like this:
as §1

The subject of series [6] is SUDHL5. Put plainly: Induction of cytotoxicity (CellTiter-Glo, 5 h), SUDHL5. On the technique in general: Cellular ATP, detected with luciferase, serves as a proxy for viable cell number.
Series [7] has as its system SUDHL10. Nature of the series: Induction of cytotoxicity (CellTiter-Glo, 5 h), SUDHL10.
Setting [8] is: Homo sapiens, SU-DHL-5, 5 h, read-out: Cytotox SUDHL5 [M] (median), SUDHL5 cells, cytotoxicity induction, CellTiter-Glo, 5 h incubation, median.
Where [9] appears, read: read-out: Cytotox SUDHL10 [M] (median), SUDHL10 cells, cytotoxicity induction, CellTiter-Glo, 5 h incubation, median.
Setting [10] is: read-out: Cytotox SUDHL5 [M] (median), SUDHL5 cells, cytotoxicity induction, CellTiter-Glo, 5 h incubation, median.
[11] abbreviates: Homo sapiens, SU-DHL10, 5 h, read-out: Cytotox SUDHL10 [M] (median), SUDHL10 cells, cytotoxicity induction, CellTiter-Glo, 5 h incubation, median.

T1 sequence (Q07817 1-212): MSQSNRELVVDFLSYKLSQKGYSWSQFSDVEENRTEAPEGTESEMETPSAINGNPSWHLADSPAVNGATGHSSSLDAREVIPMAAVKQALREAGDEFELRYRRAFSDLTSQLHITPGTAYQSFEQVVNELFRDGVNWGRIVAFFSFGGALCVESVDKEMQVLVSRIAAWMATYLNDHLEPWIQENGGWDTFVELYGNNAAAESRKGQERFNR

Broadly, the EC50 is the midpoint of the concentration-response curve. Low readings indicate an effect from little substance, high ones a need for much substance. As for `CN1CCCn2c(C(=O)O)c(CCCOc3cccc4ccccc34)c3cccc(c32)-c2c(CN3CCOCC3)nn(C)c2C1` (single isomer, unassigned; enantiomer 1) [Example 1-43, (+)-7,9-dimethyl-11-(morpholin-4-ylmethyl)-1-[3-(naphthalen-1-yloxy)propyl]-4,5,6,7,8,9-hexahydropyrazolo[3′,4′:7,8][1,5]diazecino[9,10,1-hi]indole-2-carboxylic Acid (Enantiomer 1)], the IC50 is over 20 µM in series [1]; 9.58e-06 M in series [3] (Homo sapiens, SU-DHL-5, 72 h); 8.34e-06 M in series [4] (Homo sapiens, SU-DHL10, 72 h); 2.48e-05 M in series [5] (Homo sapiens, A2780, 72 h); 6.9e-06 M in series [6] (setting [8]); 1.48e-05 M in series [7] (setting [9]). In addition, the EC50 in series [2] (Homo sapiens, SU-DHL-5, 3 h) was found to be 6.57 µM.
As to `CN1CCCn2c(C(=O)O)c(CCCOc3cccc4ccccc34)c3cccc(c32)-c2c(COc3ccc(N4CCN(S(C)(=O)=O)CC4)cc3)nn(C)c2C1` (single isomer, unassigned; enantiomer 1) [Example 1-46, (+)-7,9-dimethyl-11-({4-[4-(methylsulfonyl)piperazin-1-yl]phenoxy}methyl)-1-[3-(naphthalen-1-yloxy)propyl]-4,5,6,7,8,9-hexahydropyrazolo[3′,4′:7,8][1,5]diazecino[9,10,1-hi]indole-2-carboxylic Acid (Enantiomer 1)], the IC50 was over 20 µM in series [1]; 9.89e-07 M in series [3]; 8.61e-07 M in series [4]; 7.08e-06 M in series [5] (Homo sapiens, A2780, 72 h); 1.53e-06 M in series [6] (setting [10]); 2.29e-06 M in series [7] (setting [9]). Also, the EC50 in series [2] amounted to 0.776 µM.
Consider `Cc1nn(C)c2c1-c1cccc3c(CCCOc4cccc5cc(F)ccc45)c(C(=O)O)n(c13)CCCCOC2` (single isomer, unassigned; enantiomer 1) [Example 019, 7-{3-[(6-fluoronaphthalen-1-yl)oxy]propyl}-1,3-dimethyl-1,10,11,12,13,15-hexahydropyrazolo[4′,3′:9,10][1,6]oxazacycloundecino[8,7,6-hi]indole-8-carboxylic Acid-N-ethylethanamine Salt (Enantiomer 1)], for which the IC50 was over 20 µM in series [1]; 3.65e-06 M in series [3]; 4.45e-06 M in series [4] (Homo sapiens, SU-DHL10, 72 h); over 3.3e-05 M in series [5]; 1.68e-06 M in series [6] (setting [10]); 3.76e-06 M in series [7] (setting [9]). In series [2], this compound gave an EC50 of 1.52 µM.
Regarding `Cc1nn(C)c2c1-c1cccc3c(CCCOc4cccc5cc(F)ccc45)c(C(=O)O)n(c13)CCCOC2` (single isomer, unassigned; enantiomer 1) [Example 047, 1-{3-[(6-fluoronaphthalen-1-yl)oxy]propyl}-9,11-dimethyl-5,6,8,9-tetrahydro-4H-pyrazolo[4′,3′:8,9][1,5]oxazecino[7,6,5-hi]indole-2-carboxylic acid-N-ethylethanamine Salt (Enantiomer 1)], the IC50 in series [1] was over 20 µM; in series [3] it was 4.41e-06 M; in series [4], 3.61e-06 M; in series [5], 2.69e-05 M; in series [6] (setting [10]), 3.22e-06 M; in series [7] (setting [9]), 6.49e-06 M. In addition, the EC50 in series [2] was 2.96 µM.
Consider `COCCn1nc2c(c1CN1CCOCC1)-c1cccc3c(CCCOc4cccc5ccccc45)c(C(=O)O)n(c13)CCCN(C)C2` (single isomer, unassigned; enantiomer 1) [Example 057, 10-(2-methoxyethyl)-7-methyl-11-(morpholin-4-ylmethyl)-1-[3-(naphthalen-1-yloxy)propyl]-4,5,6,7,8,10-hexahydropyrazolo[3′,4′:7,8][1,5]diazecino[9,10,1-hi]indole-2-carboxylic Acid (Enantiomer 1)], for which the IC50 is over 20 µM in series [1]; 1.04e-05 M in series [3] (Homo sapiens, SU-DHL-5, 72 h); 1.21e-05 M in series [4] (Homo sapiens, SU-DHL10, 72 h); 3.01e-05 M in series [5] (Homo sapiens, A2780, 72 h); 2.5e-05 M in series [6] (setting [8]); 2.39e-05 M in series [7] (setting [11]). The same compound came in with an EC50 in series [2] (Homo sapiens, SU-DHL-5, 3 h) of 27.9 µM.
Turning to `Cc1c2c(nn1CCN1CCOCC1)CN(C)CCCn1c(C(=O)O)c(CCCOc3cccc4ccccc34)c3cccc-2c31` (single isomer, unassigned; enantiomer 1) [Example 060, 7,11-dimethyl-10-[2-(morpholin-4-yl)ethyl]-1-[3-(naphthalen-1-yloxy)propyl]-4,5,6,7,8,10-hexahydropyrazolo[3′,4′:7,8][1,5]diazecino[9,10,1-hi]indole-2-carboxylic Acid (Enantiomer 1)], the IC50 in series [1] was over 20 µM; in series [3], 1.79e-06 M; in series [4] (Homo sapiens, SU-DHL10, 72 h), 1.16e-05 M; in series [5] (Homo sapiens, A2780, 72 h) it was 2.21e-05 M; in series [6] (setting [10]), 4.3e-06 M; in series [7] (setting [9]) it was 7.87e-06 M. For the same compound, the EC50 in series [2] is 5.13 µM.
As to `Cc1ccc2c(CCCOc3cccc4ccccc34)c(C(=O)O)n3c2c1-c1c(nn(C)c1C)CN(C)CCC3` (single isomer, unassigned; enantiomer 1) [Example 073, 7,10,11,12-tetramethyl-1-[3-(naphthalen-1-yloxy)propyl]-4,5,6,7,8,10-hexahydropyrazolo[3′,4′:7,8][1,5]diazecino[9,10,1-hi]indole-2-carboxylic Acid (Enantiomer 1)], the IC50 is over 20 µM in series [1]; 3.23e-06 M in series [3]; 6.86e-06 M in series [4] (Homo sapiens, SU-DHL10, 72 h); 1.4e-05 M in series [5] (Homo sapiens, A2780, 72 h); 1.79e-06 M in series [6] (setting [10]); 3.67e-06 M in series [7] (setting [9]). In series [2], this compound gave an EC50 of 2.12 µM.
For `CCn1nc2c(c1C1CC1)-c1cccc3c(CCCOc4cccc5ccccc45)c(C(=O)O)n(c13)CCCCOC2` (single isomer, unassigned; enantiomer 1) [Example 082, 3-cyclopropyl-2-ethyl-7-[3-(naphthalen-1-yloxy)propyl]-2,10,11,12,13,15-hexahydropyrazolo[4′,3′:9,10][1,6]oxazacycloundecino[8,7,6-hi]indole-8-carboxylic acid-N-ethylethanamine Salt (Enantiomer 1)], the IC50 in series [1] is over 20 µM; in series [3] (Homo sapiens, SU-DHL-5, 72 h), 1.81e-05 M; in series [4] (Homo sapiens, SU-DHL10, 72 h), 7.79e-06 M; in series [5] (Homo sapiens, A2780, 72 h), 1.68e-05 M; in series [6] (setting [10]), 8.19e-06 M; in series [7] (setting [11]) it was over 3.3e-05 M. The same compound had an EC50 in series [2] of 8.69 µM.
